Drawing on PubChem BioAssay AID2305 (GlaxoSmithKline (GSK), 2010), this text covers IC50 for 43 molecules.

For the experiment, the system named is P. falciparum 3D7 growth, pLDH absorbance. Nature of the experiment: P. falciparum 3D7 growth inhibition, dose response, strain 3D7 (AID 2305).

`Nc1ccc(-c2cnc3[nH]cc(-c4ccc(C(=O)O)cc4)c3c2)cn1` gave an IC50 of 960 nM. As to `CN1CCC(NC(=O)c2cc(Oc3ccc4c(c3)CCN4C(=O)Nc3cccc(C(F)(F)F)c3)ccn2)CC1`, the IC50 stood at 930 nM.

On to `COc1ccc(NS(=O)(=O)c2cc(NC(=O)Cn3ccccc3=O)ccc2N2CCCCC2)cc1`, for which the IC50 was found to be 700 nM. `Cc1cccc2[nH]c(-c3ccc(-c4ccc(CNCCc5ccncc5)cc4)cc3)nc12` gave an IC50 of 210 nM. In the case of `COc1cc(Nc2nccc(N3CCC(NC(=O)Nc4cc(C)ccc4C)C3)n2)cc(OC)c1OC` (stereo not drawn), the IC50 was 1120 nM.

In turn, `O=C(NCc1cccc2ccccc12)C1CCCN(C(=O)c2ccc(O)c(-c3ccc(Cl)c(Cl)c3)c2)C1` (stereo not drawn) had a half-maximal inhibitory concentration (IC50) of 1030 nM.

In turn, `c1ccc(N2CCN(c3cc(-c4cccnc4)nc(-c4ccncc4)n3)CC2)nc1` showed an IC50 of 760 nM. `NCCC(=O)Nc1ccc(-c2cnc3[nH]cc(-c4ccc(C(=O)O)cc4)c3c2)cn1` showed an IC50 of 840 nM. To `COC(=O)c1cccc(CNCc2cccc(-c3cccc(-c4nc5ccccc5[nH]4)c3)c2)c1` belongs 500 nM; to `CN(C)CCn1c(N)c(-c2nc3ccccc3s2)c2nc(C#N)c(C#N)nc21`, 1010 nM; to `C[C@@]12C[C@@H](Nc3nc(NCCc4ccc(O)cc4)nc(N4CCNCC4)n3)C[C@@H](C1)c1cccc(Cl)c1O2`, 1320 nM. `O=C(c1ccc(-c2ccc(-c3nc4ccc(C(F)(F)F)cc4[nH]3)s2)cc1)N1CCN(CCc2ccccc2)CC1` displayed an IC50 of 590 nM.

The molecule `CC(C)c1nc(N2CCN(C(=S)NCc3ccccc3)CC2)c(C#N)c2c1COC(C)(C)C2` displayed an IC50 of 140 nM.

Regarding `C(=Cc1ccccc1)C=NNc1ccnc2ccccc12`, the IC50 is 730 nM. The molecule `O=C(NC1CCCCN(Cc2ccccc2O)C1)c1ccc(Cl)c(Cl)c1` (stereo not drawn) showed an IC50 of 750 nM. `Clc1ccc(-c2cnc3ccc(NCCc4cccnc4)nn23)cc1`: the IC50 was found to be 860 nM. Under `CC(C)CCN1CCCN(Cc2cccc(NC(=O)c3ccc(Cl)c(Cl)c3)c2)CC1` stands 1020 nM; under `CS(=O)(=O)Nc1ccc2[nH]cc(C3CCN(CC4CCC(NC(=O)/C=C/c5ccc(Cl)c(Cl)c5)CC4)CC3)c2n1` (stereo not drawn), 780 nM; under `COCCNCc1ccc(-c2ccc(CNC3CCN(Cc4ccccc4)CC3)cc2)cc1`, 670 nM. The molecule `O=C(Nc1ccccc1)N(Cc1cccc(-c2ccc(CNCc3ccc4c(c3)OCO4)cc2)c1)C1CCN(Cc2ccccc2)CC1` yielded a half-maximal inhibitory concentration (IC50) of 330 nM. Under `Oc1ccc(CCNc2nc(NCc3ccccc3-c3cccc(Cl)c3)nc(N3CCNCC3)n2)cc1` stands 1280 nM. For `Cc1cc(NN=Cc2cccc(Cl)c2)c2ccc(F)cc2n1`, the IC50 was 240 nM.

The molecule `Cc1cccc2[nH]c(-c3ccc(-c4ccc(NC(=O)Nc5ccc(Cl)cc5)cc4)cc3)nc12` yielded a 50% inhibitory concentration (IC50) of 100 nM.

Molecule `COc1cccc(-c2cc(-c3ccc(NC(=O)c4ccccc4)cc3)c3c(N)ncnc3n2)c1` showed an IC50 of 590 nM. On to `NCC(NC(=O)c1ccc(-c2c[nH]c3ncccc23)s1)c1ccccc1` (stereo not drawn), for which the IC50 came out at 550 nM. In turn, `Cc1sc(C)c(CNCCCNc2cc(=O)c3ccccc3[nH]2)c1Br` came in with an IC50 of 880 nM. With `Cc1cc2nc(-c3ccc(/C=C/C(=O)NCCc4ccccc4)cc3)[nH]c2cc1C`, the IC50 turned out to be 780 nM.

The molecule `CC(=O)Nc1ccc(CN2CCC(NC(=O)c3ccc(-c4ccc(N(C)C)cc4)s3)CC2)cc1` had an IC50 of 870 nM. Turning to `O=S(=O)(NC1CCN(c2ccnc3cc(Cl)ccc23)C1)c1ccc(F)cc1` (stereo not drawn), the IC50 came to 470 nM.

On to `CCc1c(CCNCCCCCCNCCc2ccc(OC)c(OC)c2C)ccc(OC)c1OC`, for which the IC50 turned out to be 1570 nM. Under `N#Cc1ccc(/C=C/C(=O)NCCCCCN2CCN(C(=O)Nc3ccc(Cl)c(C(F)(F)F)c3)CC2)cc1` stands 780 nM. As to `Cc1cc(NN=Cc2cccc(F)c2)c2cccc(C)c2n1`, the IC50 worked out at 770 nM. In turn, `Cc1cc(-c2ccc(NC(=O)N3CCc4cc(Br)c(N5CCN(C)CC5)cc43)cc2)cc(C)n1` gave an IC50 of 1010 nM. In turn, `COc1cc(SC)c(Br)cc1-c1nc2ccncc2[nH]1` registered an IC50 of 1100 nM. Molecule `Cc1nc2nc(N)nc(N)c2c(C)c1Cc1cccc(C#N)c1` came in with an IC50 of 920 nM. Under `O=C(CCc1cccnc1)Nc1cccc(-c2ccc(-c3nc4ccc(C(F)(F)F)cc4[nH]3)s2)c1` stands 950 nM; under `COc1cc([N+](=O)[O-])ccc1NC(=O)c1cc(Cl)ccc1O`, 1140 nM. `O=C(NCCc1ccccc1)[C@H](Cc1ccccc1)Nc1ccnc(NCC2CCCCC2)n1` showed an IC50 of 1380 nM.

On to `C(=NNc1cc(-c2ccccc2)nc2ccccc12)c1cccnc1`, for which the IC50 is 1230 nM.

For `O=[N+]([O-])c1cccc(CNCC2CCN(CCc3ccccc3)CC2)c1`, the IC50 is 780 nM.

Turning to `CCCc1cc(OC)c(CC2c3cc(O)c(C)cc3CCN2C)cc1OC` (stereo not drawn), the 50% inhibitory concentration (IC50) was 700 nM. In turn, `Cn1c2c(c3ccccc31)CN(CCC1(c3ccc(Cl)c(Cl)c3)CN(C(=O)c3ccccc3)CCO1)CC2` (stereo not drawn) gave an IC50 of 310 nM. To `O=C(CCc1cnc[nH]1)Nc1cccc(-c2ccc(-c3nc4ccccc4[nH]3)cc2)c1` belongs 650 nM.
